# Results as given in US20080108655A1, “Drug composition and method for treating malaria and malignancy” (priority 2005, published 2008).
# How the values were obtained:
# [1] = tested on: drug-resistant P. falciparum; assay: in vitro chemosensitization/resistance-reversal (C/RR) potency, strain not stated; type: cell-based
# Procedure: (§1) All in vitro studies were 72 hour growth inhibition assays, starting with 0.2% parasitemia, 2% hematocrit under standard culture conditions in 96 well microplates. Growth was quantified using the fluorescence-based assay developed in our lab (Smilkstein et al; Antimicrobial Agents and Chemotherapy 2004;48:1803-1806). EC50 determined by non-linear regression curve fitting (sigmoidal dose-response, variable slope equation) using GraphPad Prism software. Isobolograms and EC50,75 and 90 estimates computed using CalcuSyn software (Biosoft, T. C. Chou).
# [2] = tested on: CQ-resistant P. chabaudi; details: mice, drug alone
# [3] = human, in vivo; cited from earlier work
# [4] = tested on: P. falciparum D6 (CQ sensitive, mefloquine resistant); assay: 72 hour growth inhibition assay, fluorescence-based, strain D6; type: cell-based
# Procedure: as §1
# (§2) 2. […] In the following figures, fixed-ratio combinations of 2 drugs are made at the concentrations of each described in the figure legend (Fivelman, Adagu and Warhurst. Antimicrobial Agents and Chemotherapy 2004;48:4097-4102). Then, in quadruplicate, each of these combinations is diluted serially 2-fold, yielding one curve for each starting mixture. The data are expressed using the concentration of the antimalarial of interest on the X axis. […] In each starting combination, an increase of one drug is accompanied by a corresponding decrease in the other. As a result, overlapping curves indicate an additive relationship; a shift to the left, synergy; and a shift to the right, antagonism. • b. […]
# [5] = tested on: P. falciparum Dd2 (multidrug resistant)
# Procedure: as §1
# 2. […] In the following figures, fixed-ratio combinations of 2 drugs are made at the concentrations of each described in the figure legend (Fivelman, Adagu and Warhurst. Antimicrobial Agents and Chemotherapy 2004;48:4097-4102). Then, in quadruplicate, each of these combinations is diluted serially 2-fold, yielding one curve for each starting mixture. The data are expressed using the concentration of the antimalarial of interest on the X axis. […] In each starting combination, an increase of one drug is accompanied by a corresponding decrease in the other. As a result, overlapping curves indicate an additive relationship; a shift to the left, synergy; and a shift to the right, antagonism. • b. One representative isobologram from each of the experiments is included to the right of the figure, showing lines predictive of EC50,75 and 90 if the combinations were additive in effect. Points falling to the lower left of the predictive lines indicate synergy; those on or near the line, additive effects.
# [6] = tested on: P. falciparum W2 (chloroquine-resistant); assay: 72 hour growth inhibition assay, fluorescence-based, strain W2; type: cell-based; details: fixed-ratio combinations, isobologram
# Procedure: as §1, §2
# [7] = human, in vivo; cited from earlier work; remark: listed apart in the source
# [8] = tested on: drug-resistant P. falciparum; details: imipramine vs desipramine; amitriptyline vs nortriptyline; cited from earlier work
smiles,measurement,setting,value
"CN(C)CCC(c1ccc(Br)cc1)c1ccccn1 (stereo not drawn) [BP, brompheniramine]",C/RR potency of the (+/−) and (+) forms compared,[1]; in vitro,equipotent
Cc1ccccc1C(OCCN(C)C)c1ccccc1 (racemic) [orphenadrine],parasitemia at completion of 4 treatment days,[2],decreased parasitemia
same,sedation as side effect,[3],does not typically cause sedation
same,interaction with mefloquine,"[4]; D6, resistant to mefloquine",synergistic
same,interaction with CQ,"[4]; D6, fixed-ratio combinations, isobologram",not against CQ sensitive D6
same,effect on sensitivity to quinine or mefloquine,[1]; strains resistant to those drugs,increases sensitivity to quinine or mefloquine
same,interaction with mefloquine,"[5]; Dd2, resistant to mefloquine",synergistic
same,interaction with quinine,"[5]; Dd2, resistant to quinine",synergistic
same,interaction with CQ,"[5]; Dd2, fixed-ratio combinations, isobologram",synergistic
same,interaction with CQ,[6],synergistic
CN(C)CCC(c1ccccc1)c1ccccn1 (stereo not drawn) [pheniramine],concentrations achieved in clinical use relative to BP or CP,[7],roughly 20 fold
same,sedation as side effect,[3],shares sedation as a side effect
CN(C)CCC=C1c2ccccc2CCc2ccccc21 [amitriptyline],"resistance-reversal potency, dimethylamine vs monomethylamine pair",[8],no substantial difference
CNCCCN1c2ccccc2CCc2ccccc21 [desipramine],typical serum concentrations in clinical use,[7],100 to 500 nM
same,"resistance-reversal potency, dimethylamine vs monomethylamine pair",[8],no substantial difference
CN(C)CCC(c1ccc(Cl)cc1)c1ccccn1 (racemic) [chlorpheniramine],typical serum concentrations in clinical use,[7],< 100 nM
same,sedation as side effect,[3],consistently causes drowsiness
same,C/RR potency of the (+/−) and (+) forms compared,[1]; in vitro,equipotent
"CN(C)CCC(c1ccc(Cl)cc1)c1ccccn1 (single isomer, unassigned; (-)) [(−)CP]",C/RR activity,[1]; in vitro,active
CNCCC=C1c2ccccc2CCc2ccccc21 [nortriptyline],"resistance-reversal potency, dimethylamine vs monomethylamine pair",[8],no substantial difference
CN(C)CCCN1c2ccccc2CCc2ccccc21 [imipramine],"resistance-reversal potency, dimethylamine vs monomethylamine pair",[8],no substantial difference
